# Test results as given in patent publication US20160376659A1, “Breast Cancer Biomarker” (The University of Manchester, priority 2015, published 2016).
# Experiments:
# [1] = tested on: ER+ metastatic BC patient-derived samples; test: ALDEFLUOR assay (ALDH enzymatic activity) in metastatic patient-derived cells; format: cell-based, human; conditions: Tamoxifen 10^−6 M or Fulvestrant 10^−7 M, 7-9 days; seven out of nine patient samples
# Description: Metastatic samples (ascites or pleural effusions) were centrifuged at 1000 g for 10 minutes at 4° C. The cell pellets were diluted in PBS. Erythrocytes and leucocytes were removed using Lymphoprep (Axis-Shield) and CD45-negative magnetic sorting (Miltenyi Biotec), respectively. Cells were cultured in adherence for 7-9 days in DMEM/F-12 medium, GlutaMAX (Gibco) with 10% FBS (Gibco), 10 μg/ml insulin (Sigma), 10 μg/ml hydrocortisone (Sigma) and 5 ng/ml epidermal growth factor (EGF, Sigma), in 10^−6M 4-OH-tamoxifen (Sigma, H7904), 10^−7M fulvestrant (ICI 182780, TOCRIS, 1047) or ethanol (control).
# Dissociated single cells were suspended in Aldefluor assay buffer containing an ALDH substrate, bodipyaminoacetaldehyde (BAAA) at […], and incubated for 45 min at 37° C. To distinguish between ALDH-positive and -negative cells, a fraction of cells was incubated under identical conditions in the presence of a 2-fold molar excess of the ALDH inhibitor, diethylaminobenzaldehyde (DEAB). Mouse cells were excluded from the FACS analysis with anti-mouse MHC Class I (H-2Kd) antibody conjugated with Pacific Blue (BioLegend, 116616). 7-aminoactinomycin D (7AAD, BD) was added for dead cell exclusion. Data were acquired on a LSR II (BD) flow cytometer and analysed using the BD FACSDiva™ software.
# [2] = tested on: NOTCH4-ICD and JAG1; test: NOTCH4-ICD and JAG1 Western Blot in PDX treated in vivo; parameters: species or system mice; conditions: 14 day window treatment of PDXs in vivo
# Description: Tamoxifen citrate (Sigma, T9262, 10 mg/kg/day) and RO4929097 (Cellagen Technology, 3 mg/kg/day) were administered by oral gavage (0.1 ml/dose) on a five day from seven basis (weekends excluded) for fourteen days. Tamoxifen citrate and RO4929097 were prepared in 1% carboxymethylcellulose (Sigma, C9481) dissolved in distilled water. Fulvestrant (kindly provided by Astrazeneca, 200 mg/kg/week) was administered by subcutaneous injection (0.1 ml/dose) on a weekly basis for fourteen days. The HBC×22 and HBC×34 tamoxifen-resistant PDXs have been established by our collaborators in the Curie Institute (Cottu el al, 2014) and were treated for fourteen days in the presence or absence of the gamma-secretase inhibitor RO4929097 (10 mg/kg/day, oral gavage). Xenografts were collected in ice cold DMEM media for live cell assays, histological analysis and RNA and protein extraction. Patient-derived xenograft single cell suspension was obtained using a collagenase-hyaluronidase mixture for digestion (Stem Cell Technologies).
# Proteins were extracted with Protein Lysis Buffer (25 mM HEPES, 50 mM NaCl, 30 mM NaPP, 50 mM NaF, 1% Triton-X-100, 10% Glycerol, 5 mM EDTA, Protease Inhibitor cocktail, 1 μM PMSF). […] Protein concentrations were assessed using the BCA Protein Assay Kit (Thermo Scientific, 23225). […]
# [3] = tested on: NOTCH4-ICD and JAG1; test: NOTCH4-ICD and JAG1 Western Blot in MCF-7 cells; format: cell-based, human; conditions: short term treatment of MCF-7 cells in vitro
# Description: MCF7, T47D and ZR-75-1 cell lines were purchased from American Tissue Culture Collection (ATCC) and cultured in DMEM/F-12, GlutaMAX (Gibco) with 10% FBS (Gibco). Cells were treated for 3 days or 6 days with ethanol (control), 10^-6M 4-OH-tamoxifen or 10^−7M fulvestrant and/or with 10 μM of gamma-secretase inhibitor RO4929097 (Cellagen Technology) or DMSO (control).
# Proteins were extracted with Protein Lysis Buffer (25 mM HEPES, 50 mM NaCl, 30 mM NaPP, 50 mM NaF, 1% Triton-X-100, 10% Glycerol, 5 mM EDTA, Protease Inhibitor cocktail, 1 μM PMSF). Lysates were placed on a rotator for 1 hour at 4° C., then were centrifuged at 10000 g at 4° C. for 10 min, and supernatants were collected. Protein concentrations were assessed using the BCA Protein Assay Kit (Thermo Scientific, 23225). Proteins were separated on a 10% gel (Biorad, 456-1033) by SDS-PAGE at 200V for 1 hour, and then were transferred on polyvinylidene difluoride (PVDF) membranes (BioRad, 170-4157) at 25 V/1,300 mA for 15 min using a Trans Blot Turbo (BioRad, 170-4155). Membranes were blocked in a solution of PBS containing 0.05% Tween-20 and 5% skimmed milk (Marvel) for 1 h at room temperature and primary antibodies were incubated overnight at 4° C. […]
# [4] = tested on: CBF1-Notch transcriptional activity; test: Notch transcriptional assay (10×CBF1-luciferase reporter); format: cell-based, human; conditions: TAMR and FULVR cell lines; 72 h
# Description: MCF7 resistant cell lines were authenticated by comparative karyotyping to ATCC-derived MCF7. To measure the activation of Notch dependent transcription, cells were transfected with CBF1 firefly luciferase reporter (containing 10 copies of a CBF1 consensus sequence) and CMV-Renilla luciferase reporter. Plasmids were incubated with […] (Roche, 06366244001) in a ratio of 3:1 (μl of […] of DNA) in OptiMEM (Life Technologies, 11058-021) for 15 minutes, before addition to the culture media. After 48 hours cells were lysed with 1× Passive lysis buffer (5×, Promega, E 1941), put on the rocker for 15 minutes and luminescence was assayed with the Dual-Glo Luciferase assay system (Promega, E2920) following manufacturer's instructions. Luciferase activity was measured using a luminometer (Promega, Glomax Multi+ Detection System with Instinct Software). Luminescence of the firefly luciferase was normalised to that of the renilla luciferase.
Structure (SMILES),ALDH enzymatic activity [1],NOTCH4-ICD and JAG1 protein expression [2],NOTCH4-ICD and JAG1 protein expression [3],CBF1-Notch transcriptional activity [4]
"CC/C(=C(\c1ccccc1)c1ccc(OCCN(C)C)cc1)c1ccccc1 [tamoxifen, (Z)-2-[4-(1,2-diphenylbut-1-enyl)phenoxy]-N,N-dimethylethanamine]",significant increase,up-regulated,up-regulated,–
CC(C)(C(=O)NCC(F)(F)C(F)(F)F)C(=O)N[C@@H]1C(=O)Nc2ccccc2-c2ccccc21 [RO4929097],–,–,–,inhibited
C[C@]12CC[C@@H]3c4ccc(O)cc4C[C@@H](CCCCCCCCC[S+]([O-])CCCC(F)(F)C(F)(F)F)[C@H]3[C@@H]1CC[C@@H]2O (stereo partly shown) [fulvestrant],significant increase,up-regulated,up-regulated,–
